Data taken from patent US20190315814A1, “LANTIBIOTIC VARIANTS AND USES THEREOF” (priority 2016, published 2019).
In brackets after ≈: the same amount, converted by molar mass. Where two headings read alike, the source gives them in different places. Where a SMILES comes first, the peptide text is derived from it.

How the values were obtained:
[1] = tested on: Lactobacillus acidophilus (CCUG 4356)
[2] = tested on: Eggerthella lenta (ATCC 27337)
[3] = tested on: VRE Enterococcus faecium
[4] = tested on: Peptostreptococcus anaerobius (ATCC 27337)
[5] = tested on: VRE Enterococcus faecalis; settings: VRE
[6] = tested on: Heliobacter pylori
[7] = simulated gi fluid
[8] = tested on: Clostridium scindens (ATCC 35704)
[9] = in vitro; settings: simulated gastric fluid without enzyme, pH 1.4
Procedure: Assay incubation conditions included […] simulated gastric fluid (SGF, USP 39 Test Solution; 2 g/L NaCl, 7 mL/L glacial HCl, pH 1.4) containing 1.75 mg/mL Pepsin (3200-4500 U/mg) mixed with 7.5 μL of 10 mg/mL variant (or positive control, NH2-Met-Arg-Phe-Ala-OH, MRFA, CAS#67368-29-0) for a final concentration of 300 μg/ml variant in a microfuge tube. Samples were incubated at 37° C. and analyzed using HPLC or LC-MS for loss of substrate. The percent remaining, elimination rate constant (Ke), and in vitro protein half-lives were calculated. A control of SGF without enzyme was also run and analyzed in the same manner for each variant.

[10] = FaSSIF + 1% pancreatin + 3 μg/ml trypsin + 3 μg/ml chymotrypsin half-life

SMILES | MIC L. acidophilus [1] | MIC E. lenta [2] | MIC VRE ATCC 700221 [3] | MIC P. anaerobius [4] | MIC VRE ATCC 51575 [5] | MIC VRE CCUG 47775 [5] | MIC to H. Pylori without EDTA [6] | MIC to H. Pylori with 0.05M EDTA [6] | half-life [7, 10] | half-life ([7]; FaSSIF only half-life) | MIC C. scindens [8] | MIC to H. Pylori without EDTA ([6]; without EDTA) | half-life at 300 μg/ml [9]
C=C1NC(=O)[C@H](CCSC)NC(=O)[C@H](NC(=O)[C@H](CCCCN)NC(=O)[C@@H](N)[C@@H](C)CC)CSC[C@@H](C(=O)N[C@H]2C(=O)N3CCC[C@H]3C(=O)NCC(=O)N[C@H](C(=O)N[C@@H](C)C(=O)N[C@@H](C)C(=O)NC(=CC)C(=O)NCC(=O)N[C@@H]3CSC[C@@H]4NC(=O)[C@H](Cc5ccc(O)cc5)NC(=O)[C@@H](CS/C=C\NC4=O)NC(=O)[C@H](CC(N)=O)NC(=O)[C@H](Cc4ccccc4)NC3=O)CS[C@H]2C)NC(=O)[C@H](CC(C)C)NC1=O [F1I W4M R13A] | 32 µg/mL (≈ 15.3 µM) | 16 µg/mL (≈ 7.65 µM) | >64 µg/mL | 8 µg/mL (≈ 3.83 µM) | >64 µg/mL | >64 µg/mL | 64 µg/mL (≈ 30.6 µM) | 64 µg/mL | 5.82 h | > 12 h | 32 µg/mL (≈ 15.3 µM) | – | –
CN(C)[C@@H]1C(O)=C(C(N)=O)C(=O)[C@@]2(O)C(O)=C3C(=O)c4c(O)cccc4[C@@](C)(O)[C@H]3C[C@@H]12 [Tetracycline, reference compound] | – | – | – | – | – | – | – | 0.25 µg/mL | – | – | – | 0.5 µg/mL (≈ 1.13 µM) | –
C=C1NC(=O)[C@H](Cc2c[nH]c3ccccc23)NC(=O)[C@H](NC(=O)[C@H](CCCCN)NC(=O)CN)CSC[C@@H](C(=O)N[C@H]2C(=O)N3CCC[C@H]3C(=O)NCC(=O)N[C@H](C(=O)N[C@@H](C)C(=O)N[C@@H](CC(N)=O)C(=O)NC(=CC)C(=O)NCC(=O)N[C@@H]3CSC[C@@H]4NC(=O)[C@H](Cc5ccc(O)cc5)NC(=O)[C@@H](CS/C=C\NC4=O)NC(=O)[C@H](CC(N)=O)NC(=O)[C@H](Cc4ccccc4)NC3=O)CS[C@H]2C)NC(=O)[C@H](CC(C)C)NC1=O [F1G R13N] | 8 µg/mL (≈ 3.75 µM) | 16 µg/mL (≈ 7.5 µM) | 32 µg/mL (≈ 15 µM) | 4 µg/mL (≈ 1.88 µM) | >64 µg/mL | >64 µg/mL | >64 µg/mL | >64 µg/mL | 3.75 h | > 12 h | 16 µg/mL (≈ 7.5 µM) | – | –
C=C1NC(=O)[C@H](Cc2c[nH]c3ccccc23)NC(=O)[C@H](NC(=O)[C@H](CCCCN)NC(=O)[C@H](C)N)CSC[C@@H](C(=O)N[C@H]2C(=O)N3CCC[C@H]3C(=O)NCC(=O)N[C@H](C(=O)N[C@@H](C)C(=O)NCC(=O)NC(=CC)C(=O)NCC(=O)N[C@@H]3CSC[C@@H]4NC(=O)[C@H](Cc5ccc(O)cc5)NC(=O)[C@@H](CS/C=C\NC4=O)NC(=O)[C@H](CC(N)=O)NC(=O)[C@H](Cc4ccccc4)NC3=O)CS[C@H]2C)NC(=O)[C@H](CC(C)C)NC1=O [F1A R13G] | 16 µg/mL (≈ 7.66 µM) | 16 µg/mL (≈ 7.66 µM) | 32 µg/mL (≈ 15.3 µM) | 4 µg/mL (≈ 1.91 µM) | >64 µg/mL | >64 µg/mL | >64 µg/mL | >64 µg/mL | 2.07 h | 4.98 h | 32 µg/mL (≈ 15.3 µM) | – | –
C=C1NC(=O)[C@H](Cc2c[nH]c3ccccc23)NC(=O)[C@H](NC(=O)[C@H](CCCCN)NC(=O)[C@@H](N)CO)CSC[C@@H](C(=O)N[C@H]2C(=O)N3CCC[C@H]3C(=O)NCC(=O)N[C@H](C(=O)N[C@@H](C)C(=O)N[C@@H](CC(N)=O)C(=O)NC(=CC)C(=O)NCC(=O)N[C@@H]3CSC[C@@H]4NC(=O)[C@H](Cc5ccc(O)cc5)NC(=O)[C@@H](CS/C=C\NC4=O)NC(=O)[C@H](CC(N)=O)NC(=O)[C@H](Cc4ccccc4)NC3=O)CS[C@H]2C)NC(=O)[C@H](CC(C)C)NC1=O [F1S R13N] | 16 µg/mL (≈ 7.4 µM) | 16 µg/mL (≈ 7.4 µM) | 64 µg/mL (≈ 29.6 µM) | 8 µg/mL (≈ 3.7 µM) | >64 µg/mL | >64 µg/mL | >64 µg/mL | >64 µg/mL | > 12 h | > 12 h | 32 µg/mL (≈ 14.8 µM) | – | –
C=C1NC(=O)[C@H](Cc2c[nH]c3ccccc23)NC(=O)[C@H](NC(=O)[C@H](CCCCN)NC(=O)[C@@H](N)[C@@H](C)O)CSC[C@@H](C(=O)N[C@H]2C(=O)N3CCC[C@H]3C(=O)NCC(=O)N[C@H](C(=O)N[C@@H](C)C(=O)NCC(=O)NC(=CC)C(=O)NCC(=O)N[C@@H]3CSC[C@@H]4NC(=O)[C@H](Cc5ccc(O)cc5)NC(=O)[C@@H](CS/C=C\NC4=O)NC(=O)[C@H](CC(N)=O)NC(=O)[C@H](Cc4ccccc4)NC3=O)CS[C@H]2C)NC(=O)[C@H](CC(C)C)NC1=O [F1T R13G] | 8 µg/mL (≈ 3.77 µM) | 8 µg/mL (≈ 3.77 µM) | 32 µg/mL (≈ 15.1 µM) | 8 µg/mL (≈ 3.77 µM) | 64 µg/mL (≈ 30.2 µM) | 64 µg/mL (≈ 30.2 µM) | >64 µg/mL | >64 µg/mL | 1.9 h | > 12 h | 64 µg/mL (≈ 30.2 µM) | – | –
CSCC[C@H](N)C(=O)N[C@@H](CCCNC(=N)N)C(=O)N[C@@H](Cc1ccccc1)C(=O)N[C@@H](C)C(=O)O [Positive Control, NH2-Met-Arg-Phe-Ala-OH, reference compound] (H-MRFA-OH) | – | – | – | – | – | – | – | – | – | – | – | – | > 24 h
C=C1NC(=O)[C@H](Cc2c[nH]c3ccccc23)NC(=O)[C@H](NC(=O)[C@H](CCCCN)NC(=O)[C@H](C)N)CSC[C@@H](C(=O)N[C@H]2C(=O)N3CCC[C@H]3C(=O)NCC(=O)N[C@H](C(=O)N[C@@H](C)C(=O)N[C@@H](C)C(=O)NC(=CC)C(=O)NCC(=O)N[C@@H]3CSC[C@@H]4NC(=O)[C@H](Cc5ccc(O)cc5)NC(=O)[C@@H](CS/C=C\NC4=O)NC(=O)[C@H](CC(N)=O)NC(=O)[C@H](Cc4ccccc4)NC3=O)CS[C@H]2C)NC(=O)[C@H](CC(C)C)NC1=O [F1A R13A] | 8 µg/mL (≈ 3.8 µM) | 4 µg/mL (≈ 1.9 µM) | 16 µg/mL (≈ 7.61 µM) | 2 µg/mL (≈ 0.951 µM) | 32 µg/mL (≈ 15.2 µM) | 32 µg/mL (≈ 15.2 µM) | >64 µg/mL | 64 µg/mL | 2.17 h | > 12 h | 16 µg/mL (≈ 7.61 µM) | – | –
C=C1NC(=O)[C@H](Cc2c[nH]c3ccccc23)NC(=O)[C@H](NC(=O)[C@H](CCCCN)NC(=O)[C@@H](N)[C@@H](C)CC)CSC[C@@H](C(=O)N[C@H]2C(=O)N3CCC[C@H]3C(=O)NCC(=O)N[C@H](C(=O)N[C@@H](C)C(=O)N[C@@H](CC(N)=O)C(=O)NC(=CC)C(=O)N[C@@H](C)C(=O)N[C@@H]3CSC[C@@H]4NC(=O)[C@H](Cc5ccc(O)cc5)NC(=O)[C@@H](CS/C=C\NC4=O)NC(=O)[C@H](CC(N)=O)NC(=O)[C@H](Cc4ccccc4)NC3=O)CS[C@H]2C)NC(=O)[C@H](CC(C)C)NC1=O [F1I R13N G15A] | 8 µg/mL (≈ 3.63 µM) | 8 µg/mL (≈ 3.63 µM) | 32 µg/mL (≈ 14.5 µM) | 4 µg/mL (≈ 1.82 µM) | 32 µg/mL (≈ 14.5 µM) | >64 µg/mL | >64 µg/mL | 64 µg/mL | > 12 h | > 12 h | 16 µg/mL (≈ 7.26 µM) | – | –
